Laboratory results published in patent publication US8410053B2, “Methods for treating autoimmune disorders, and reagents related thereto” (Trustees of Tufts College, priority 2001, dated 2013).

Key:
[1] = target: DP-IV (Homo sapiens, UniProt P27487); experiment: Inhibition / affinity for DP-IV; type: biochemical
[2] = target: T1, DPIV (Rattus norvegicus, UniProt P14740); experiment: DPIV assays on serum samples from rats; type: in vivo; details: rat serum 1 hour after treatment; Ala-Pro-paranitroanalide substrate, pH 8
T1 construct: from tissue; host or cells: rat serum
T1 sequence (P14740 38-767 limits assumed): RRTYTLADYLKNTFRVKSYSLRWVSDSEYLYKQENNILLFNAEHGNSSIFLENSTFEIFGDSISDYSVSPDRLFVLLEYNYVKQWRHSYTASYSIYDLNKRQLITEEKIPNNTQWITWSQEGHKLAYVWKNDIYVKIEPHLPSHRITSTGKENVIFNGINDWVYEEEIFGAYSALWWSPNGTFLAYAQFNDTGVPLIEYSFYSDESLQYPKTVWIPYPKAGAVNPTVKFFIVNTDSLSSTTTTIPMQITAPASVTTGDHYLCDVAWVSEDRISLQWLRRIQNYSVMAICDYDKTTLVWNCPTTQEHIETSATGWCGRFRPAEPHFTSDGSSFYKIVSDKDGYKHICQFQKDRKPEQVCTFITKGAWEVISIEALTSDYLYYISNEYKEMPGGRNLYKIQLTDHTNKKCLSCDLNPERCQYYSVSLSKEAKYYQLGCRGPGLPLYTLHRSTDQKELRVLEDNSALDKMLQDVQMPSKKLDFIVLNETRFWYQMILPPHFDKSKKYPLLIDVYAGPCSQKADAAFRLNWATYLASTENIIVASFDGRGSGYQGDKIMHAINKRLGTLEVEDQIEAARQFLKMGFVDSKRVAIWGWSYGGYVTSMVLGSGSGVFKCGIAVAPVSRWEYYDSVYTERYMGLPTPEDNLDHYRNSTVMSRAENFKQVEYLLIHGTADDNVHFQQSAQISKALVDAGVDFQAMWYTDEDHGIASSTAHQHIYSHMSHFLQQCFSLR
Procedure: Four rats were used in this experiment: two females (#3 and #9) and two males (#10 and #11). Blood and plasma samples were collected from rats 1 hour after being treated with Cyclohexylglycine-boroAla. The collected serum samples were evaluated for DPPIV activity of Cyclohexylglycine-boroAla as follows: • 1. 2 mg of Ala-Pro-paranitroanalide (substrate) was dissolved in 20 ml 0.1 M HEPES pH 8, 0.14 M NaCl (buffer). • 2. Serum samples were diluted into substrate solution in the wells of a microtiter plate. For each sample, 10 uL of serum was diluted into 150 μL of substrate. • 3. A reading of the A410 in each well was recorded immediately after the dilution of serum into substrate, and again after approximately 1 hour. The time of data acquisition for each reading is recorded in the data file by the microplate reader software.
The rate of absorbance change was obtained by subtracting the first reading from the second and dividing by the reaction time to give DeltaA410/hr. The DPIV activity was plotted in units of DeltaA410 hr^−1μ^−1.

[3] = In vivo regulation of glucose metabolism
[4] = test system: NOD mice; experiment: Incidence of diabetes in NOD mice upon treatment with DPIV inhibitors; type: in vivo
Procedure: The experiment was started on 8-10 week old NOD mice. The mice were kept under VAF/SPF conditions and fed everyday with either Val-boro-Pro (0.034 mg/kg) or Cyclohexyl-boro-Ala (0.34 mg/kg) for 60 days and then observed for the development of spontaneous diabetes. The mice were tested for the excretion of sugar in urine and considered positive for diabetes when sugar was detected in the urine.

[5] = in vivo, cited from earlier work
[6] = chronic (>5 days) treatment, alone

Sequence of DP-IV (P27487 whole entry): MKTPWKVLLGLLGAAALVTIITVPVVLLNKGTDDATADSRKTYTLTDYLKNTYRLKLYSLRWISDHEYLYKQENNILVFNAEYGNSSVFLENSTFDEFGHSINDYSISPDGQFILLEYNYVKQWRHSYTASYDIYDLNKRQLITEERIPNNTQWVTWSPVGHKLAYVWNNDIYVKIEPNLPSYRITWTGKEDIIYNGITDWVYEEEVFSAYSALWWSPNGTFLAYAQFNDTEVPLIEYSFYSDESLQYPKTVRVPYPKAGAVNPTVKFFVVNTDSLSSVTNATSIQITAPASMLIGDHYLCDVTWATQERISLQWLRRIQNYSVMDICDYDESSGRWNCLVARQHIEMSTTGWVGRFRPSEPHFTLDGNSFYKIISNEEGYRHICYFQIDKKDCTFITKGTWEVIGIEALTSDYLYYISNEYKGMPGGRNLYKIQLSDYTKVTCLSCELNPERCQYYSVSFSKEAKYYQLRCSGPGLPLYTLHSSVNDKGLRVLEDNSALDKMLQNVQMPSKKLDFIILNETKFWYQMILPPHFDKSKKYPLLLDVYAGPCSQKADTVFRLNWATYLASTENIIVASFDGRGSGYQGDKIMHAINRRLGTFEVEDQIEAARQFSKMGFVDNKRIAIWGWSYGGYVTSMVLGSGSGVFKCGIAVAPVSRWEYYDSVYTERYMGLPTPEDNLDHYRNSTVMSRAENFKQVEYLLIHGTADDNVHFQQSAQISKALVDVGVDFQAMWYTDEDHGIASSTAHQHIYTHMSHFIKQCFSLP

## CC(NC(=O)OC(C)(C)C)C(=O)N1CCCC1B(O)O (stereo not drawn) [Boc-blocked Ala-boroPro, Boc-Ala-boroPro]
[1]
  affinity for DP-IV: no affinity

## CC(NC(=O)C(N)C1CCCCC1)B(O)O (stereo not drawn) [Cyclohexylglycine-boroAla]
[2]
  DPIV enzyme activity in serum: significantly decreased

## O=C(C1CCCN1)N1CCCC1B(O)O (stereo not drawn) [Pro-boro-Pro]
[3]; [6]
  fasting blood sugars: lowers
  glycemic excursion to oral glucose challenge: lowers
[3]; single injection
  response to a subtherapeutic dose of GLP-1: potentiate the response
[3]; single injection, alone
  glucose control: alone sufficient to improve glucose control

## CC(C)[C@H](N)C(=O)N1CCC[C@H]1B(O)O [Val-boro-Pro]
[4]; 0.034 mg/kg fed every day for 60 days
  recovery of mice that showed signs of diabetes: some of the mice that showed signs of diabetes got better and recovered
[4]; 0.034 mg/kg fed every day for 60 days, end of the experiment
  incidence of Diabetes: low incidence of Diabetes
[4]; end of the experiment
  general health compared to the other groups: generally good health

## L-Ala-L-boroPro-pinacol
[1]; early fraction vs later fractions at equal concentrations
  extent of DP-IV inhibition, silica gel fractions compared: inhibits DP-IV to a greater extent than later fractions

## glucagon-like peptide-1 [GLP-1]
[5]; iv
  degradation: extensively degraded
[5]; sc
  degradation without inhibitor: rapidly degraded in a time-dependent manner
